Data taken from patent US4746736A, “Carbapenem antibiotics” (priority 1986, dated 1988).
Values after ≈ are worked out from the molar mass of the structure shown. Like-named read-outs stand apart in the source and are kept apart here.

What was measured:
S. pyogenes A9604 = test: In vitro MIC by tube dilution, S. pyogenes A9604; format: cell-based
P. aeruginosa A-9843A = test: In vitro MIC by tube dilution, P. aeruginosa A-9843A; format: cell-based; conditions: P. aeruginosa A-9843a
[1] = test system: S. aureus A-9606 (Pen-res.); test: In vitro MIC by tube dilution, S. aureus A-9606 (Pen-res.); format: cell-based; conditions: S. aureus A-9606 (Pen-res)
S. pneumoniae A-9585 = test: In vitro MIC by tube dilution, S. pneumoniae A-9585; format: cell-based
H. influenzae A21518 = test: In vitro MIC by tube dilution, H. influenzae A21518; format: cell-based; conditions: Haemophilus influenzae
H. influenzae A-9833 = test: In vitro MIC by tube dilution, H. influenzae A-9833; format: cell-based; conditions: Haemophilus influenzae, A9833
S. aureus A-9537 = test: In vitro MIC by tube dilution, S. aureus A-9537; format: cell-based
P. mirabilis A-9900 = test: In vitro MIC by tube dilution, P. mirabilis A-9900; format: cell-based
E. coli A15119 = test: In vitro MIC by tube dilution, E. coli A15119; format: cell-based; conditions: E. coli A15119
P. rettgeri A22424 = test: In vitro MIC by tube dilution, P. rettgeri A22424; format: cell-based
S. faecalis A20688 = test: In vitro MIC by tube dilution, S. faecalis A20688; format: cell-based
E. coli A20341-1 = test: In vitro MIC by tube dilution, E. coli A20341-1; format: cell-based
K. pneumoniae A20468 = test: In vitro MIC by tube dilution, K. pneumoniae A20468; format: cell-based
P. morganii A15153 = test: In vitro MIC by tube dilution, P. morganii (M. morganii) A15153; format: cell-based
K. pneumoniae A-9664 = test: In vitro MIC by tube dilution, K. pneumoniae A-9664; format: cell-based
E. cloacae A-9659 = test: In vitro MIC by tube dilution, E. cloacae A-9659; format: cell-based
S. marcescens A20019 = test: In vitro MIC by tube dilution, S. marcescens A20019; format: cell-based
E. cloacae A-9656 = test: In vitro MIC by tube dilution, E. cloacae A-9656; format: cell-based
P. aeruginosa A21213 = test: In vitro MIC by tube dilution, P. aeruginosa A21213; format: cell-based; conditions: P. aeruginosa A21213
P. vulgaris A21559 = test: In vitro MIC by tube dilution, P. vulgaris A21559; format: cell-based
[2] = Blood levels in mice after intramuscular administration; conditions: 20 mg/kg i.m., mice (compiled table)
Excerpt: Compounds were solubilized in 0.1 M phosphate buffer pH 7.
Values are from a single test; 4 mice used per compound.
Compounds were solubilized in 0.1 M phosphate buffer, pH 7.
Values based on a single test; 4 mice per compound.

[3] = Streptococcus pyogenes, A9604, S. pyogenes A-9604, read-out: MIC
[4] = Pseudomonas aeruginosa, A9843A, read-out: MIC
[5] = Staphylococcus aureus, read-out: MIC
[6] = Streptococcus pneumoniae, A9585, S. pneumoniae A-9585, read-out: MIC
[7] = Staphylococcus aureus, A9537, S. aureus A-9537, no serum, read-out: MIC
[8] = Proteus mirabilis, A9900, P. mirabilis A-9900, read-out: MIC
[9] = Providencia rettgeri, A22424, P. rettgeri A22424, read-out: MIC
[10] = Morganella morganii, A15153, M. morganii A15153, read-out: MIC
[11] = Klebsiella pneumoniae, A9664, read-out: MIC
[12] = Serratia marcescens, read-out: MIC
[13] = Enterobacter cloacae, A9656, E. cloacae A-9656, read-out: MIC

CCC[n+]1ccc(CSC2=C(C(=O)[O-])N3C(=O)[C@H]([C@@H](C)O)[C@H]3C2)cc1 [Example 6, 3-(1-Propylpyridine-4-yl-methanethio)-6α-[1-(R)-hydroethyl]-7-oxo-1-azabicyclo(3.2.0)hept-2-ene-2-carboxylate]
MIC (S. pyogenes A9604; [3]): 0.004 µg/mL (≈ 0.011 µM) | MIC (P. aeruginosa A-9843A; [4]): 8 µg/mL (≈ 22.1 µM) | MIC [1, 5]: 0.03 µg/mL (≈ 0.0828 µM) | MIC (S. pneumoniae A-9585; [6]): 0.004 µg/mL (≈ 0.011 µM) | MIC (H. influenzae A21518): > 32 µg/mL | MIC (H. influenzae A-9833): > 32 µg/mL | MIC (S. aureus A-9537; [7]): 0.03 µg/mL (≈ 0.0828 µM)

Cc1ccc[n+](C)c1CSC1=C(C(=O)[O-])N2C(=O)[C@H]([C@@H](C)O)[C@H]2C1 [Example 7, 3-(N-Methyl-3-methylpyridine-2-methanethio)-6α-[1-(R)-hydroxyethyl]-7-oxo-1-azabicyclo(3.2.0)hept-2-ene-2-carboxylate]
MIC (S. pyogenes A9604; [3]): 0.004 µg/mL (≈ 0.0115 µM) | MIC (P. mirabilis A-9900; [8]): 0.016 µg/mL (≈ 0.0459 µM) | MIC (E. coli A15119; Escherichia coli, read-out: MIC): 0.004 µg/mL (≈ 0.0115 µM) | MIC (P. aeruginosa A-9843A; [4]): 1 µg/mL (≈ 2.87 µM) | MIC (P. rettgeri A22424; [9]): 0.06 µg/mL (≈ 0.172 µM) | MIC (S. faecalis A20688; Enterococcus faecalis, A20688, S. faecalis A20688, read-out: MIC): 0.13 µg/mL (≈ 0.373 µM) | MIC (E. coli A20341-1; Escherichia coli, A203411, read-out: MIC): 0.004 µg/mL (≈ 0.0115 µM) | MIC [1, 5]: 0.016 µg/mL (≈ 0.0459 µM) | MIC (K. pneumoniae A20468; Klebsiella pneumoniae, A20468, K. pneumoniae A20468, read-out: MIC): 0.016 µg/mL (≈ 0.0459 µM) | MIC (S. pneumoniae A-9585; [6]): 0.004 µg/mL (≈ 0.0115 µM) | MIC (H. influenzae A21518): > 32 µg/mL | MIC (H. influenzae A-9833): > 32 µg/mL | MIC (P. morganii A15153; [10]): 0.016 µg/mL (≈ 0.0459 µM) | MIC (K. pneumoniae A-9664; [11]): 0.016 µg/mL (≈ 0.0459 µM) | MIC (E. cloacae A-9659; Enterobacter cloacae, A9659, E. cloacae A-9659, read-out: MIC): 0.016 µg/mL (≈ 0.0459 µM) | MIC (S. marcescens A20019; [12]): 0.008 µg/mL (≈ 0.023 µM) | MIC (E. cloacae A-9656; [13]): 0.016 µg/mL (≈ 0.0459 µM) | MIC (S. aureus A-9537; Staphylococcus aureus, A9537, S. aureus A-9537 +50% serum, read-out: MIC): 0.03 µg/mL (≈ 0.0861 µM) | MIC (S. aureus A-9537; [7]): 0.008 µg/mL (≈ 0.023 µM)

C[C@@H](O)C1C(=O)N2C(C(=O)[O-])=C(SCc3cn(C)n[n+]3C)CC12 (stereo partly drawn) [Example 15 "C", 3-[4-(N,N-dimethyl-1,2,3-triazolium)methylthio]-6α-[1-(R)-hydroxyethyl]-7-oxo-1-azabicyclo(3.2.0)hept-2-ene-2-carboxylate]
MIC (S. pyogenes A9604; S. pyogenes A-9604): 0.0003 µg/mL (≈ 0.000887 µM) | MIC (P. mirabilis A-9900; P. mirabilis A-9900): 0.06 µg/mL (≈ 0.177 µM) | MIC (E. coli A15119): 0.06 µg/mL (≈ 0.177 µM) | MIC (P. aeruginosa A-9843A): 8 µg/mL (≈ 23.6 µM) | MIC (P. rettgeri A22424; P. rettgeri A22424): 0.25 µg/mL (≈ 0.739 µM) | MIC (P. aeruginosa A21213): 0.5 µg/mL (≈ 1.48 µM) | MIC (P. vulgaris A21559; P. vulgaris A21559): 0.06 µg/mL (≈ 0.177 µM) | MIC (S. faecalis A20688; S. faecalis A20688): 0.5 µg/mL (≈ 1.48 µM) | MIC (E. coli A20341-1): 0.03 µg/mL (≈ 0.0887 µM) | MIC [1]: 0.03 µg/mL (≈ 0.0887 µM) | MIC (K. pneumoniae A20468; K. pneumoniae A20468): 0.13 µg/mL (≈ 0.384 µM) | MIC (S. pneumoniae A-9585; S. pneumoniae A-9585): 0.0005 µg/mL (≈ 0.00148 µM) | MIC (P. morganii A15153; M. morganii A15153): 0.25 µg/mL (≈ 0.739 µM) | AUC [2]: 7300 ng·h/mL | T1/2 [2]: 10 min | MIC (K. pneumoniae A-9664): 0.06 µg/mL (≈ 0.177 µM) | MIC (E. cloacae A-9659; E. cloacae A-9659): 0.13 µg/mL (≈ 0.384 µM) | MIC (S. marcescens A20019): 0.13 µg/mL (≈ 0.384 µM) | MIC (E. cloacae A-9656; E. cloacae A-9656): 0.13 µg/mL (≈ 0.384 µM) | MIC (S. aureus A-9537; S. aureus A-9537 +50% serum): 0.06 µg/mL (≈ 0.177 µM) | MIC (S. aureus A-9537; S. aureus A-9537, no serum): 0.016 µg/mL (≈ 0.0473 µM)

C[C@@H](O)[C@H]1C(=O)N2C(C(=O)[O-])=C(SCc3cn(CC(=O)O)n[n+]3C)C[C@H]12 [Example 18, Potassium 3-[4-(1-carboxylatomethyl-3-methyl-1,2,3-triazolium)-methanethio]-6α-[1-(R)-hydroxyethyl]-7-oxo-1-azabicyclo[3.2.0]hept-2-ene-2-carboxylate]
MIC (P. mirabilis A-9900; [8]): 32 µg/mL | MIC (P. rettgeri A22424; [9]): 32 µg/mL | MIC (P. vulgaris A21559; Proteus vulgaris, A21559, P. vulgaris A21559, read-out: MIC): 32 µg/mL | MIC [1, 5]: > 125 µg/mL | MIC (P. morganii A15153; [10]): 32 µg/mL | MIC (K. pneumoniae A-9664; [11]): 32 µg/mL | MIC (S. marcescens A20019; [12]): 32 µg/mL | MIC (E. cloacae A-9656; [13]): 125 µg/mL | MIC (S. aureus A-9537; [7]): 32 µg/mL
